Reference: ChEMBL document CHEMBL1955764, “Synthesis and biological activity of 23-ethylidene-26-hydroxy-22-oxocholestane derivatives from spirostanic sapogenins” (Eur J Med Chem, 2012)
The source made the active and inactive calls. No cut-off for these calls is given here.

How the values were obtained:
[1] = test system: CCRF-CEM; test: Cell cycle arrest in human CEM cells assessed as accumulation at G2/M phase at 5 to 50 uM after 24 hrs using propidium iodide staining by flow cytometric analysis; format: functional, cell-based
[2] = test system: CCRF-CEM; test: Cell cycle arrest in human CEM cells assessed as accumulation at G1 phase after 24 hrs using propidium iodide staining by flow cytometric analysis; format: functional, cell-based
[3] = test system: BJ; test: Cytotoxicity against human BJ cells after 72 hrs by calcein AM assay; format: cell-based
[4] = test system: CCRF-CEM; test: Cell cycle arrest in human CEM cells assessed as increase of cleaved of PARP level after 24 hrs by Western blotting analysis; format: functional, cell-based
[5] = test system: HeLa; test: Cytotoxicity against human HeLa cells after 72 hrs by calcein AM assay; format: functional, cell-based
[6] = test system: CCRF-CEM; test: Cell cycle arrest in human CEM cells assessed as accumulation at G0/G1 phase at 5 to 50 uM after 24 hrs using propidium iodide staining by flow cytometric analysis; format: functional, cell-based
[7] = test system: CCRF-CEM; test: Induction of apoptosis in human CEM cells assessed as increase of caspase 3/7 activity using Ac-DEVD-AMC as substrate at 50 uM after 24 hrs relative to control; format: functional
[8] = test system: CCRF-CEM; test: Cell cycle arrest in human CEM cells assessed as increase of cleaved of PARP level at 50 uM after 24 hrs by Western blotting analysis; format: functional, cell-based
[9] = test system: CCRF-CEM; test: Cell cycle arrest in human CEM cells assessed as decrease of procaspase 3 level after 24 hrs by Western blotting analysis; format: functional, cell-based
[10] = test system: CCRF-CEM; test: Cell cycle arrest in human CEM cells assessed as decrease of procaspase 3 level at 50 uM after 24 hrs by Western blotting analysis; format: functional, cell-based
[11] = test system: MCF7; test: Cytotoxicity against human MCF7 cells after 72 hrs by calcein AM assay; format: functional, cell-based; details: MCF7, 72 h
[12] = test system: CCRF-CEM; test: Cytotoxicity against human CEM cells after 72 hrs by calcein AM assay; format: functional, cell-based
[13] = test system: CCRF-CEM; test: Cell cycle arrest in human CEM cells assessed as accumulation at sub-G1 phase at 5 to 50 uM after 24 hrs using propidium iodide staining by flow cytometric analysis; format: functional, cell-based

SMILES | Activity [1] | Activity [2] | IC50 [3] | Activity [4] | IC50 [5] | Activity [6] | fold change (FC) [7] | Activity [8] | Activity [9] | Activity [10] | IC50 [11] | IC50 [12] | Activity [13]
C/C=C(\C[C@@H](C)CO)C(=O)[C@@H](C)[C@H]1[C@@H](OC(C)=O)C[C@H]2[C@@H]3CC=C4C[C@@H](OC(C)=O)CC[C@]4(C)[C@H]3CC[C@]12C | Active | Dose-dependent effect | > 50 µM | Dose-dependent effect | > 50 µM | Active | 2.4 | Active | Dose-dependent effect | Active | > 50 µM | 11.1 µM | Active
CC(C)CCC[C@@H](C)[C@H]1CC[C@H]2[C@@H]3CC=C4C[C@@H](O)CC[C@]4(C)[C@H]3CC[C@]12C [CHOLESTEROL] | – | – | > 50 µM | – | > 50 µM | – | – | – | – | – | > 50 µM | > 50 µM | –
CC(=O)O[C@H]1CC[C@@]2(C)C(=CC[C@H]3[C@@H]4C[C@H](OC(C)=O)[C@H]([C@H](C)C(=O)C5=C(C)OC[C@H](C)C5)[C@@]4(C)C(=O)C[C@@H]32)C1 | – | – | > 50 µM | – | > 50 µM | – | – | – | – | – | 47.1 µM | 10.5 µM | –
CC(=O)O[C@H]1CC[C@@]2(C)[C@@H](CC[C@@H]3[C@@H]2CC[C@]2(C)[C@@H]([C@H](C)C(=O)C4=C(C)OC[C@H](C)C4)[C@@H](OC(C)=O)C[C@@H]32)C1 | – | – | > 50 µM | – | > 50 µM | – | – | – | – | – | 35.7 µM | 20.7 µM | –
C/C=C(\C[C@@H](C)CO)C(=O)[C@@H](C)[C@H]1[C@@H](OC(C)=O)C[C@H]2[C@@H]3CC[C@H]4C[C@@H](OC(C)=O)CC[C@]4(C)[C@H]3CC[C@]12C | Active | Dose-dependent effect | > 50 µM | Dose-dependent effect | > 50 µM | Active | 4.3 | Active | Dose-dependent effect | Active | 14.7 µM | 5.9 µM | Active
C/C=C(\C[C@@H](C)CO)C(=O)[C@@H](C)[C@H]1[C@@H](OC(C)=O)C[C@H]2[C@@H]3CC=C4C[C@@H](OC(C)=O)CC[C@]4(C)[C@H]3CC(=O)[C@]12C | – | – | > 50 µM | – | > 50 µM | – | – | – | – | – | > 50 µM | 19 µM | –
CC(=O)O[C@H]1CC[C@@]2(C)C(=CC[C@H]3[C@@H]4C[C@H](OC(C)=O)[C@H]([C@H](C)C(=O)C5=C(C)OC[C@H](C)C5)[C@@]4(C)[C@H](O)C[C@@H]32)C1 | – | – | > 50 µM | – | > 50 µM | – | – | – | – | – | > 50 µM | 13.9 µM | –
CC(=O)O[C@H]1CC[C@@]2(C)C(=CC[C@H]3[C@@H]4C[C@H](OC(C)=O)[C@H]([C@H](C)C(=O)C5=C(C)OC[C@H](C)C5)[C@@]4(C)CC[C@@H]32)C1 | – | – | > 50 µM | – | > 50 µM | – | – | – | – | – | > 50 µM | 40.9 µM | –
